3 molecules from BindingDB's records for doi:10.1007/s00044-011-9594-4 (n/a, 2012) can be followed below.

The target of this assay is Telomerase reverse transcriptase (Homo sapiens, UniProt O14746). Put plainly: Inhibition of telomerase (unknown origin).
Chain of Telomerase reverse transcriptase (O14746 whole entry): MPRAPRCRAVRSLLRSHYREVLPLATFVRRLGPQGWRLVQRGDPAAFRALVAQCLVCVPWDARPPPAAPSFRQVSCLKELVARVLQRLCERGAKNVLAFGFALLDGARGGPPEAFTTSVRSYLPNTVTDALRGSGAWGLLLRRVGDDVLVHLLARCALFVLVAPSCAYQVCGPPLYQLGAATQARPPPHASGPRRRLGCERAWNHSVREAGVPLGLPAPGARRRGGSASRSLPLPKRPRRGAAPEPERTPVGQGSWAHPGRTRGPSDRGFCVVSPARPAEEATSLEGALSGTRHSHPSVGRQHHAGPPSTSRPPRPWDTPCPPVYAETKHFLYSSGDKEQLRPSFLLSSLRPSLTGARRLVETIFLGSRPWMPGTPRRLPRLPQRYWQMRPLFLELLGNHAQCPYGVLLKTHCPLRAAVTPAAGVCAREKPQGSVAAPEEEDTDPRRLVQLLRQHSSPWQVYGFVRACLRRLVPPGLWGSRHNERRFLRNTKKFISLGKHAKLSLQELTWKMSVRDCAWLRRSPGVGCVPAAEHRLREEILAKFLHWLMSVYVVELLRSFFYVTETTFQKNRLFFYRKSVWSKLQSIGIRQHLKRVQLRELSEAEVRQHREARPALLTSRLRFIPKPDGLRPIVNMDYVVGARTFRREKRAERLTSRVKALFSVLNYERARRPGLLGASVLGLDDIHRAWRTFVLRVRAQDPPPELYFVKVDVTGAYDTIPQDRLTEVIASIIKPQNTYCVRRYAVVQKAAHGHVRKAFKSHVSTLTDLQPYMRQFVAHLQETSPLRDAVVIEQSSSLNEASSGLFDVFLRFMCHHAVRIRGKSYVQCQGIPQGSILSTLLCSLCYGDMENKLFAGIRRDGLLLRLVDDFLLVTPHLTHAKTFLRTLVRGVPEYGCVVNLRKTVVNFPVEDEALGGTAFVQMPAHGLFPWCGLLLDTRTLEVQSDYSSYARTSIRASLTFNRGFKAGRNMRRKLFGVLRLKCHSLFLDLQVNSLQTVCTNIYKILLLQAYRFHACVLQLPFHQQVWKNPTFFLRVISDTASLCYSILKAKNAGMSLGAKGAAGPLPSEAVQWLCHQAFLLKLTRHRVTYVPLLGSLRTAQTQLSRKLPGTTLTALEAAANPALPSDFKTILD

As usually defined, the IC50 is the midpoint of a concentration-inhibition curve. Higher therefore signals weaker potency in that assay. Molecule `CN(C)CCCNCc1ccc2nc3ccc4cc5cc(CNCCCN(C)C)ccc5nc4c3cc2c1` showed an IC50 of 28.2 nM. In turn, `CSc1nc(Nc2ccc3nc(C)cc(N(C)C)c3c2)nc(Nc2ccc3nc(C)cc(N(C)C)c3c2)n1` had an IC50 of 40.8 nM. `CC1=C2NC(=C3CSC(=N3)c3coc(n3)-c3coc(n3)-c3coc(n3)-c3coc(n3)-c3coc(n3)-c3nc2oc3C)O1` [telomestatin] yielded an IC50 of 5.01 nM.
